Assay: recombinant barcode read abundance after kanamycin selection (control-corrected) (log10(CPM+1)); higher = more efficient recombination; sequences stand for … in AGTGCAGAGAAAATCGGCCAGTTTTCTCTGCCTGCAGTCCGCATGCCGT…AGATTTATGCAGCGGACTGCCTTTCTCCCAAAGTGATAAACCGGACAGTATCATGGACCGGTTTTCCCGGTAATCCGTATTTGCAAGGTTGGTTTCACT; site = the 11-nt target
Summary of the method: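 This pooled E. coli screen matched targets with IS621 bridge RNA target-binding loops. Plating was done in duplicate on chloramphenicol/ampicillin LB agar as a control and on chloramphenicol/ampicillin/kanamycin plus 0.1 mM IPTG. Recombination efficiency reflects barcode counts at recombinant junctions as counts per million, averaged and control-corrected. The figures are log10(CPM+1).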
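Further: IS621 recombinase and bridge RNA in Escherichia coli cells.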

Row | Sequence | recombinant barcode read abundance (log10)
1 | TAGCCCTCTTGGGTTCTAACCTGTTGCAA (site TAGCCCTCTTT) | 2.02
2 | TAGCCCTCTTGGGTTCTAACCTGTTGCCG (site TAGCCCTCTCG) | 1.82
3 | TAGCCCTCTTGGGTTCTAACCTGTTGCCG (site TAGTCCGCTCG) | 0.023
4 | TAGCCGGCTTGGGTTCTAACCTGTTGCAG (site GAGCCGACTCT) | 0.385
5 | TAGCCGGCTTGGGTTCTAACCTGTTGCAG (site TAGCCGGCTCT) | 1.06
6 | TAGCCGGCTTGGGTTCTAACCTGTTGCCT (site TAGCCGGCTAA) | 0.264
7 | TAGCCGGCTTGGGTTCTAACCTGTTGCCT (site TAGCCGGCTAG) | 0.907
8 | TAGCCGGCTTGGGTTCTAACCTGTTGCTT (site TAGCCGGCTAA) | 0.358
9 | TAGCCGGCTTGGGTTCTAACCTGTTGCTT (site TAGCCGGCTAG) | 0.386
10 | TAGCCTTCTTGGGTTCTAACCTGTTGCCT (site TAGCCTTCTAG) | 0.572
11 | TAGCCTTCTTGGGTTCTAACCTGTTGCCT (site TCGCCTTCTAG) | 0.204
12 | TAGCCTTCTTGGGTTCTAACCTGTTGCCT (site TGGCCTTCTAG) | 0.0192
13 | TAGCCTTCTTGGGTTCTAACCTGTTGCCT (site TTGCCTTCTAG) | 0.0659
14 | TAGCGGACTTGGGTTCTAACCTGTTGCAT (site TAGCGGACTAT) | 0.992
15 | TAGCGGACTTGGGTTCTAACCTGTTGCAT (site TAGCGGTCTAG) | 0.0826
16 | TAGCGGTCTTGGGTTCTAACCTGTTGCCT (site TAGCGGACTAT) | 0.0756
17 | TAGCGGTCTTGGGTTCTAACCTGTTGCCT (site TAGCGGTCTAG) | 1.46
18 | TAGCGTACTTGGGTTCTAACCTGTTGCGG (site TAGCGTACTAC) | 0.107
19 | TAGCGTACTTGGGTTCTAACCTGTTGCGG (site TAGCGTACTCC) | 1.79
20 | TAGCTCACTTGGGTTCTAACCTGTTGCGG (site TAGCACACTCC) | 0.0805
21 | TAGCTCACTTGGGTTCTAACCTGTTGCGG (site TAGCCCACTCC) | 0.581
22 | TAGCTCACTTGGGTTCTAACCTGTTGCGG (site TAGCGCACTCC) | 0.791

Row | Sequence | recombinant barcode read abundance (log10)
23 | TAGCTCACTTGGGTTCTAACCTGTTGCGG (site TAGCTCACTCC) | 1.3
24 | TAGCTCCCTTGGGTTCTAACCTGTTGCCG (site TAGCTCCCTAG) | 0.475
25 | TAGCTCCCTTGGGTTCTAACCTGTTGCCG (site TAGCTCCCTCG) | 1.43
26 | TAGCTCCCTTGGGTTCTAACCTGTTGCCG (site TAGCTCCCTGG) | 0.238
27 | TAGCTCCCTTGGGTTCTAACCTGTTGCCG (site TAGCTCCCTTG) | 0.379
28 | TAGCTCCCTTGGGTTCTAACCTGTTGCCT (site TAGCTCCCTAG) | 1.21
29 | TAGCTCCCTTGGGTTCTAACCTGTTGCCT (site TAGCTCCCTCG) | 0.0637
30 | TAGCTCCCTTGGGTTCTAACCTGTTGCCT (site TAGCTCCCTGG) | 0.105
31 | TAGCTCCCTTGGGTTCTAACCTGTTGCCT (site TAGCTCCCTTG) | 0.016
32 | TAGCTGACTTGGGTTCTAACCTGTTGCCT (site TAGCAGACTAG) | 1.14
33 | TAGCTGACTTGGGTTCTAACCTGTTGCCT (site TAGCCGACTAG) | 0.624
34 | TAGCTGACTTGGGTTCTAACCTGTTGCCT (site TAGCGGACTAG) | 0.194
35 | TAGCTGACTTGGGTTCTAACCTGTTGCCT (site TAGCTGACTAG) | 1.28
36 | TAGGAACCTTGGGTTCTAACCTGTTGCGT (site GAGGAGCCTAC) | 0.022
37 | TAGGAACCTTGGGTTCTAACCTGTTGCGT (site TAGGAACCTAC) | 3.35
38 | TAGGAAGCTTGGGTTCTAACCTGTTGCGA (site TAGAAAGCTTG) | 0.108
39 | TAGGAAGCTTGGGTTCTAACCTGTTGCGA (site TAGGAAGCTTC) | 2.34
40 | TAGGACTCTTGGGTTCTAACCTGTTGCAT (site CCTCGTCCTGG) | 0.0204
41 | TAGGACTCTTGGGTTCTAACCTGTTGCAT (site TAGGACTCTAT) | 1.79
42 | TAGGAGACTTGGGTTCTAACCTGTTGCCC (site CAGGAGACTAG) | 0.0355
43 | TAGGAGACTTGGGTTCTAACCTGTTGCCC (site TAGGAGACTGG) | 1.99
44 | TAGGAGACTTGGGTTCTAACCTGTTGCGT (site TAGGAAACTAC) | 1.42

Row | Sequence | recombinant barcode read abundance (log10)
45 | TAGGAGACTTGGGTTCTAACCTGTTGCGT (site TAGGACACTAC) | 0.642
46 | TAGGAGACTTGGGTTCTAACCTGTTGCGT (site TAGGAGACTAC) | 2.56
47 | TAGGAGACTTGGGTTCTAACCTGTTGCGT (site TAGGATACTAC) | 0.233
48 | TAGGAGCCTTGGGTTCTAACCTGTTGCGT (site TACGAACCTAC) | 0.323
49 | TAGGAGCCTTGGGTTCTAACCTGTTGCGT (site TAGGAGCCTAC) | 3.27
50 | TAGGCCACTTGGGTTCTAACCTGTTGCCT (site TAGGCCACTAA) | 0.0204
51 | TAGGCCACTTGGGTTCTAACCTGTTGCCT (site TAGGCCACTAC) | 0.122
52 | TAGGCCACTTGGGTTCTAACCTGTTGCCT (site TAGGCCACTAG) | 0.592
53 | TAGGCCACTTGGGTTCTAACCTGTTGCCT (site TAGGCCACTAT) | 0
54 | TAGGCGCCTTGGGTTCTAACCTGTTGCAT (site TAGGCGCCTAA) | 4.17
55 | TAGGCGCCTTGGGTTCTAACCTGTTGCAT (site TAGGCGCCTAC) | 0.723
56 | TAGGCGCCTTGGGTTCTAACCTGTTGCAT (site TAGGCGCCTAG) | 0.0713
57 | TAGGCGCCTTGGGTTCTAACCTGTTGCAT (site TAGGCGCCTAT) | 0.299
58 | TAGGCGCCTTGGGTTCTAACCTGTTGCGT (site TAGGCGCCTAA) | 0.0787
59 | TAGGCGCCTTGGGTTCTAACCTGTTGCGT (site TAGGCGCCTAC) | 0.735
60 | TAGGCGCCTTGGGTTCTAACCTGTTGCGT (site TAGGCGCCTAG) | 0.0904
61 | TAGGCGCCTTGGGTTCTAACCTGTTGCGT (site TAGGCGCCTAT) | 0.249
62 | TAGGCGGCTTGGGTTCTAACCTGTTGCGT (site AGCTGTCCTCT) | 0.0593
63 | TAGGCGGCTTGGGTTCTAACCTGTTGCGT (site TAGGCGGCTAC) | 2.63
64 | TAGGCTCCTTGGGTTCTAACCTGTTGCAA (site TAGGCTCCTAT) | 0.309
65 | TAGGCTCCTTGGGTTCTAACCTGTTGCAA (site TAGGCTCCTCT) | 0.0906
66 | TAGGCTCCTTGGGTTCTAACCTGTTGCAA (site TAGGCTCCTGT) | 0

Row | Sequence | recombinant barcode read abundance (log10)
67 | TAGGCTCCTTGGGTTCTAACCTGTTGCAA (site TAGGCTCCTTT) | 1.41
68 | TAGGCTCCTTGGGTTCTAACCTGTTGCCG (site TAGCCTACTCG) | 0.00951
69 | TAGGCTCCTTGGGTTCTAACCTGTTGCCG (site TAGGCTCCTCG) | 0.412
70 | TAGGCTCCTTGGGTTCTAACCTGTTGCCT (site TAAGATCCTAG) | 0.205
71 | TAGGCTCCTTGGGTTCTAACCTGTTGCCT (site TAGGCTCCTAG) | 0
72 | TAGGGGACTTGGGTTCTAACCTGTTGCAA (site CGTCCTGCTAA) | 0.0997
73 | TAGGGGACTTGGGTTCTAACCTGTTGCAA (site TAGGGGACTTT) | 2.27
74 | TAGGTATCTTGGGTTCTAACCTGTTGCAG (site CCTTGTGCTAC) | 0.156
75 | TAGGTATCTTGGGTTCTAACCTGTTGCAG (site TAGGTATCTCT) | 2.01
76 | TAGGTCCCTTGGGTTCTAACCTGTTGCAT (site TAGGTACCTAT) | 0.389
77 | TAGGTCCCTTGGGTTCTAACCTGTTGCAT (site TAGGTCCCTAT) | 1.85
78 | TAGGTCCCTTGGGTTCTAACCTGTTGCAT (site TAGGTGCCTAT) | 0.0967
79 | TAGGTCCCTTGGGTTCTAACCTGTTGCAT (site TAGGTTCCTAT) | 0.228
80 | TAGGTCCCTTGGGTTCTAACCTGTTGCGA (site AAGGTCCCTCC) | 0.0896
81 | TAGGTCCCTTGGGTTCTAACCTGTTGCGA (site TAGGTCCCTTC) | 3.11
82 | TAGTAAGCTTGGGTTCTAACCTGTTGCCT (site TAGTAAGCTAG) | 1.23
83 | TAGTAAGCTTGGGTTCTAACCTGTTGCCT (site TAGTATCCTAG) | 0.088
84 | TAGTACCCTTGGGTTCTAACCTGTTGCAA (site TAGTACCCTAT) | 0.0814
85 | TAGTACCCTTGGGTTCTAACCTGTTGCAA (site TAGTACCCTCT) | 0.104
86 | TAGTACCCTTGGGTTCTAACCTGTTGCAA (site TAGTACCCTGT) | 0.0816

— the supplement of paper PMC11208160
